Results taken from the supplement of paper PMC10307832.

How the values were obtained:
Experiment in all cases: relative viability (nuclei count vs DMSO), 5 days (fraction); higher = more cells survive
[1] = tested on: UMC-11
Outline: (§1)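 Relative viability equals treated-well nuclei counts divided by vehicle-well nuclei counts. Counts came from 4× images of lung cancer cell lines grown in 1536-well plates for 5 days after pin-tool dosing on the day after seeding. Dosing used one drug alone or a fixed anchor-drug dose plus five library-drug doses (not always all listed) in √10 steps, and values are medians of duplicate plates.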

[2] = tested on: SW 1573
Outline: as §1

[3] = tested on: NCI-H2009
Outline: as §1

[4] = tested on: A-427
Outline: as §1

[5] = tested on: NCI-H1793
Outline: as §1

[6] = tested on: NCI-H1944
Outline: as §1

[7] = tested on: NCI-H1915
Outline: as §1

[8] = tested on: EPLC-272H
Outline: as §1

[9] = tested on: NCI-H358
Outline: as §1

[10] = tested on: ABC-1
Outline: as §1

[11] = tested on: NCI-H2023
Outline: as §1

[12] = tested on: HCC-15
Outline: as §1

[13] = tested on: RERF-LC-KJ
Outline: as §1

[14] = tested on: NCI-H322M
Outline: as §1

[15] = tested on: NCI-H838
Outline: as §1

[16] = tested on: NCI-H441
Outline: as §1

[17] = tested on: NCI-H1734
Outline: as §1

[18] = tested on: NCI-H647
Outline: as §1

[19] = tested on: LK-2
Outline: as §1

[20] = tested on: NCI-H2342
Outline: as §1

[21] = tested on: LC-2-ad
Outline: as §1

[22] = tested on: NCI-H2347
Outline: as §1

Work on `CCNC(=O)c1noc(-c2cc(C(C)C)c(O)cc2O)c1-c1ccc(CN2CCOCC2)cc1` [Luminespib] + COc1cc2c(Oc3ccc(NC(=O)C4(C(=O)Nc5ccc(F)cc5)CC4)cc3F)ccnc2cc1OCCCN1CCOCC1 [Foretinib] (partner 0.25 µM) yielded a relative viability ([1]; first compound 0.002 µM) of 1.14, a relative viability ([1]; first compound 0.006325 µM) of 0.982 and a relative viability ([1]; first compound 0.02 µM) of 0.816. For the same compound, the relative viability ([1]; first compound 0.06325 µM) was 0.561, the relative viability ([1]; first compound 0.2 µM) was 0.169 and the relative viability ([2]; first compound 0.002 µM) was 0.91. It also gave a relative viability ([2]; first compound 0.006325 µM) of 0.766, a relative viability ([2]; first compound 0.02 µM) of 0.521 and a relative viability ([2]; first compound 0.06325 µM) of 0.148. It also gave a relative viability ([2]; first compound 0.2 µM) of 0.119, a relative viability ([3]; first compound 0.002 µM) of 1.22 and a relative viability ([3]; first compound 0.006325 µM) of 1.16. The relative viability ([3]; first compound 0.02 µM) was 1.33, the relative viability ([3]; first compound 0.06325 µM) was 0.298 and the relative viability ([3]; first compound 0.2 µM) was 0.0898. It also gave a relative viability ([4]; first compound 0.002 µM) of 1.14, a relative viability ([4]; first compound 0.006325 µM) of 0.969 and a relative viability ([4]; first compound 0.02 µM) of 0.84. It also gave a relative viability ([4]; first compound 0.06325 µM) of 1.06, a relative viability ([4]; first compound 0.2 µM) of 1.1 and a relative viability ([5]; first compound 0.002 µM) of 0.739. The relative viability ([5]; first compound 0.006325 µM) was 0.892, the relative viability ([5]; first compound 0.02 µM) was 0.472 and the relative viability ([5]; first compound 0.06325 µM) was 0.551. For the same compound, the relative viability ([5]; first compound 0.2 µM) was 0.189, the relative viability ([6]; first compound 0.002 µM) was 0.937 and the relative viability ([6]; first compound 0.006325 µM) was 0.884. The relative viability ([6]; first compound 0.02 µM) was 0.653, the relative viability ([6]; first compound 0.06325 µM) was 0.767 and the relative viability ([6]; first compound 0.2 µM) was 0.419. For the same compound, the relative viability ([7]; first compound 0.002 µM) was 1.13, the relative viability ([7]; first compound 0.006325 µM) was 1.04 and the relative viability ([7]; first compound 0.02 µM) was 1.02. For the same compound, the relative viability ([7]; first compound 0.06325 µM) was 1.05, the relative viability ([7]; first compound 0.2 µM) was 0.826 and the relative viability ([8]; first compound 0.002 µM) was 0.74. For the same compound, the relative viability ([8]; first compound 0.006325 µM) was 0.666, the relative viability ([8]; first compound 0.06325 µM) was 0.625 and the relative viability ([8]; first compound 0.2 µM) was 0.0989. It also gave a relative viability ([9]; first compound 0.002 µM) of 0.69, a relative viability ([9]; first compound 0.006325 µM) of 0.705 and a relative viability ([9]; first compound 0.02 µM) of 0.631. The relative viability ([9]; first compound 0.06325 µM) was 0.06, the relative viability ([9]; first compound 0.2 µM) was 0.0569 and the relative viability ([10]; first compound 0.002 µM) was 1.08. The relative viability ([10]; first compound 0.006325 µM) was 0.881, the relative viability ([10]; first compound 0.02 µM) was 0.859 and the relative viability ([10]; first compound 0.06325 µM) was 0.583. It also gave a relative viability ([10]; first compound 0.2 µM) of 0.206, a relative viability ([11]; first compound 0.002 µM) of 0.739 and a relative viability ([11]; first compound 0.006325 µM) of 0.884. The relative viability ([11]; first compound 0.02 µM) was 0.438, the relative viability ([11]; first compound 0.06325 µM) was 0.123 and the relative viability ([11]; first compound 0.2 µM) was 0.0586. It also gave a relative viability ([12]; first compound 0.002 µM) of 1.09, a relative viability ([12]; first compound 0.006325 µM) of 0.971 and a relative viability ([12]; first compound 0.02 µM) of 1.07. For the same compound, the relative viability ([12]; first compound 0.06325 µM) was 0.151, the relative viability ([12]; first compound 0.2 µM) was 0.126 and the relative viability ([13]; first compound 0.002 µM) was 0.875. It also gave a relative viability ([13]; first compound 0.006325 µM) of 0.832, a relative viability ([13]; first compound 0.02 µM) of 0.71 and a relative viability ([13]; first compound 0.06325 µM) of 0.861. The relative viability ([13]; first compound 0.2 µM) was 0.445, the relative viability ([14]; first compound 0.002 µM) was 0.932 and the relative viability ([14]; first compound 0.006325 µM) was 0.998. It also gave a relative viability ([14]; first compound 0.02 µM) of 0.795, a relative viability ([14]; first compound 0.06325 µM) of 0.323 and a relative viability ([14]; first compound 0.2 µM) of 0.3. It also gave a relative viability ([15]; first compound 0.002 µM) of 1.08, a relative viability ([15]; first compound 0.006325 µM) of 1.06 and a relative viability ([15]; first compound 0.02 µM) of 1.07. It also gave a relative viability ([15]; first compound 0.06325 µM) of 0.582, a relative viability ([15]; first compound 0.2 µM) of 0.148 and a relative viability ([16]; first compound 0.002 µM) of 0.927. For the same compound, the relative viability ([16]; first compound 0.006325 µM) was 0.92, the relative viability ([16]; first compound 0.02 µM) was 1.51 and the relative viability ([16]; first compound 0.06325 µM) was 0.196. For the same compound, the relative viability ([16]; first compound 0.2 µM) was 0.149, the relative viability ([17]; first compound 0.002 µM) was 0.9 and the relative viability ([17]; first compound 0.006325 µM) was 0.915. For the same compound, the relative viability ([17]; first compound 0.02 µM) was 0.697, the relative viability ([17]; first compound 0.06325 µM) was 0.175 and the relative viability ([17]; first compound 0.2 µM) was 0.171. The relative viability ([18]; first compound 0.002 µM) was 1.32, the relative viability ([18]; first compound 0.006325 µM) was 1.12 and the relative viability ([18]; first compound 0.02 µM) was 1.32. It also gave a relative viability ([18]; first compound 0.06325 µM) of 0.131, a relative viability ([18]; first compound 0.2 µM) of 0.0972 and a relative viability ([19]; first compound 0.002 µM) of 1.66. For the same compound, the relative viability ([19]; first compound 0.006325 µM) was 1.44, the relative viability ([19]; first compound 0.02 µM) was 0.604 and the relative viability ([19]; first compound 0.06325 µM) was 0.858. It also gave a relative viability ([19]; first compound 0.2 µM) of 0.88, a relative viability ([20]; first compound 0.002 µM) of 1.02 and a relative viability ([20]; first compound 0.006325 µM) of 0.991. The relative viability ([20]; first compound 0.02 µM) was 0.656, the relative viability ([20]; first compound 0.06325 µM) was 0.786 and the relative viability ([20]; first compound 0.2 µM) was 0.543. The relative viability ([21]; first compound 0.002 µM) was 1.02, the relative viability ([21]; first compound 0.006325 µM) was 0.928 and the relative viability ([21]; first compound 0.02 µM) was 0.834. For the same compound, the relative viability ([21]; first compound 0.06325 µM) was 0.321, the relative viability ([21]; first compound 0.2 µM) was 0.25 and the relative viability ([22]; first compound 0.002 µM) was 0.987. For the same compound, the relative viability ([22]; first compound 0.006325 µM) was 0.64, the relative viability ([22]; first compound 0.02 µM) was 0.59 and the relative viability ([22]; first compound 0.06325 µM) was 0.922. It also gave a relative viability ([22]; first compound 0.2 µM) of 0.376.
